The subject of data set [1] is CA-I/72 T. cruzi. Description: Phenotypic high-content imaging assay, intracellular T. cruzi amastigotes in C2C12 host cells. The data set is classed as cell-based, Trypanosoma cruzi. The conditions noted are these: for Selectivity Index (SI): SI = CC50 (C2C12) / EC50 (T. cruzi CA-I/72); for EC50: Trypanosoma cruzi, read-out: EC50 CA-I/72 T. cruzi.
Experimental: C2C12 mouse myoblasts (ATCC CRL-1772) and CA-I/72 T. cruzi (kindly donated by J. Dvorak, NIH) were cultured in Dulbecco’s Modified Eagle Medium (Invitrogen, Carlsbad, CA, USA), supplemented with 5% fetal bovine serum (Sigma Aldrich, St. Louis, MO, USA) and 1% penicillin-streptomycin (Invitrogen, Carlsbad, CA, USA) at 37 °C and 5% CO2 essentially as described [11]. Passaging of CA-I/72 T. cruzi was conducted weekly via co-culture with C2C12 host cells.
Compounds from the ReFRAME library, benznidazole (Sigma Alderich, St. Louis, MO, USA) and DMSO (Sigma Alderich, St. Louis, MO, USA), were transferred to black 1536-well plates (Greiner Bio One, Kremsmünster, Austria) with clear bottoms using an Acoustic Transfer System (ATS) instrument (EDC Biosystems, Fremont, CA, USA). C2C12 cells were seeded at a density of 100 cells per well, and CA-I/72 T. cruzi parasites were seeded at a density of 1500 cells per well, using a Multidrop Combi liquid handler (Thermo Scientific, Waltham, MA, USA). Plates were incubated at 37 °C and 5% CO2 for 72 h in humidified trays to reduce edge effect. Following this incubation, paraformaldehyde (4% final concentration) in 1× phosphate buffered saline (PBS, Invitrogen, 10010023) was used to fix the cells for 1 h. The cells were then subsequently treated with 5 µg/mL DAPI staining solution (Sigma Aldrich, D9542) for 1 h. Next, the plates were imaged using an ImageXpress Micro XLS automated high-content imager (Molecular Devices, San Jose, CA, USA), using the 10× fluorescence objective. Images were analyzed automatically using a custom image analysis module [9, 11].
Compounds from the ReFRAME library were pre-spotted on 1536 clear-bottom black well plates in 100% dimethylsulfoxide (DMSO) for a final concentration of 10 µM in 10 µL final volume (and 0.1% DMSO final concentration). C2C12 mouse myoblasts and CA-I/72 strain T. cruzi trypomastigotes were added to the plate in a 1:15 infection ratio and incubated for 72 h at 37 °C and 5% CO2. Cells were then fixed with 4% paraformaldehyde (final concentration), and stained with 5 µg/mL of 4’,6-diamidino-2-phenylindole (DAPI) to highlight the nuclei from the host cells and parasites. Using an ImageXpress Micro XLS automated microscope (10× magnification setting), fluorescence images of C2C12 and T. cruzi amastigote nuclei were acquired for each well, and the number of host cell nuclei and amastigote nuclei were automatically determined using a custom image analysis module as previously described [9, 10, 11] […] Parasite amastigote nuclei were selectively counted over trypomastigote nuclei, via distance gating of parasitic nuclei distance from host cell nuclei in the microscopy images.
Data set [2] in a line: Host cell toxicity by nuclei counting in the phenotypic high-content imaging assay. Particulars: mouse. The procedure: C2C12 mouse myoblasts (ATCC CRL-1772) and CA-I/72 T. cruzi (kindly donated by J. Dvorak, NIH) were cultured in Dulbecco’s Modified Eagle Medium (Invitrogen, Carlsbad, CA, USA), supplemented with 5% fetal bovine serum (Sigma Aldrich, St. Louis, MO, USA) and 1% penicillin-streptomycin (Invitrogen, Carlsbad, CA, USA) at 37 °C and 5% CO2 essentially as described. Passaging of CA-I/72 T. cruzi was conducted weekly via co-culture with C2C12 host cells.
Compounds from the ReFRAME library, benznidazole (Sigma Alderich, St. Louis, MO, USA) and DMSO (Sigma Alderich, St. Louis, MO, USA), were transferred to black 1536-well plates (Greiner Bio One, Kremsmünster, Austria) with clear bottoms using an Acoustic Transfer System (ATS) instrument (EDC Biosystems, Fremont, CA, USA). C2C12 cells were seeded at a density of 100 cells per well, and CA-I/72 T. cruzi parasites were seeded at a density of 1500 cells per well, using a Multidrop Combi liquid handler (Thermo Scientific, Waltham, MA, USA). Plates were incubated at 37 °C and 5% CO2 for 72 h in humidified trays to reduce edge effect. Following this incubation, paraformaldehyde (4% final concentration) in 1× phosphate buffered saline (PBS, Invitrogen, 10010023) was used to fix the cells for 1 h. The cells were then subsequently treated with 5 µg/mL DAPI staining solution (Sigma Aldrich, D9542) for 1 h. Next, the plates were imaged using an ImageXpress Micro XLS automated high-content imager (Molecular Devices, San Jose, CA, USA), using the 10× fluorescence objective. Images were analyzed automatically using a custom image analysis module.
Compounds from the ReFRAME library were pre-spotted on 1536 clear-bottom black well plates in 100% dimethylsulfoxide (DMSO) for a final concentration of 10 µM in 10 µL final volume (and 0.1% DMSO final concentration). C2C12 mouse myoblasts and CA-I/72 strain T. cruzi trypomastigotes were added to the plate in a 1:15 infection ratio and incubated for 72 h at 37 °C and 5% CO2. Cells were then fixed with 4% paraformaldehyde (final concentration), and stained with 5 µg/mL of 4’,6-diamidino-2-phenylindole (DAPI) to highlight the nuclei from the host cells and parasites. Using an ImageXpress Micro XLS automated microscope (10× magnification setting), fluorescence images of C2C12 and T. cruzi amastigote nuclei were acquired for each well, and the number of host cell nuclei and amastigote nuclei were automatically determined using a custom image analysis module as previously described (Figure 1). Parasite amastigote nuclei were selectively counted over trypomastigote nuclei, via distance gating of parasitic nuclei distance from host cell nuclei in the microscopy images.
Infection levels were calculated as a ratio of the number of T. cruzi amastigotes per C2C12 host cell, as determined by nuclei counting. Compound toxicity was determined by dividing the number of host cell nuclei in a drug-treated well by the average of the vehicle controls. For both infection ratios and cell viability ratios, values were normalized to the vehicle controls to determine percent activity and toxicity, respectively. Control wells containing uninfected C2C12 cells, infected C2C12 cells with 0.1% DMSO, and infected C2C12 cells with 0.1% DMSO and 50 µM benznidazole were prepared in each plate for data normalization. […] Hit selection cutoffs for the primary screen were set at 70% antiparasitic activity (70% parasite reduction compared to untreated controls) and 50% host cell viability at 10 µM compound compared to untreated controls (represents approximately three standard deviations from the average of the untreated controls).

Where [3] appears, read: intracellular amastigotes in C2C12, 72 h, 10-point 3-fold dose response in duplicate, +/- SE.
[4] abbreviates: C2C12 mouse myoblasts co-cultured with CA-I/72 T. cruzi.

The record followed here is publication PMC7232187, “High-Throughput Screening of the ReFRAME Library Identifies Potential Drug Repurposing Candidates for Trypanosoma cruzi” (Microorganisms, 2020).

Like-named read-outs stand apart in the source and are kept apart here.

On to `COc1ccccc1N1CCN(CCCCn2c(=O)sc3cc(CCN4CCC(C(=O)c5ccc(F)cc5)CC4)ccc32)CC1` [3-[4-[4-(2-Methoxyphenyl)piperazine-1-yl]butyl]-6-[2-[4-(4-fluorobenzoyl)piperidine-1-yl]ethyl]benzothiazole-2(3H)-one], for which, in data set [1], the “Selectivity Index (SI)” value is given as 145. For the same molecule, in data set [1] (setting [3]), the EC50 came out at 22 nM. Also, in data set [2] (setting [4]), the CC50 at 72 h amounted to 3190 nM.
The corresponding values for `C=C(NNC(=S)NNC(=S)Nc1ccccc1Cl)c1ccccn1` [348U87, 2-acetylpyridine 5-[(2-chloroanilino)-thiocarbonyl]-thiocarbonohydrazone] are 1294, 0.63 nM and 815 nM.
Taken in the same sequence, the figures for `C=CC(=O)N1CC[C@@H](Oc2nc(Nc3ccc(N4CCC(N5CCN(C)CC5)CC4)cc3)c(C(N)=O)nc2CC)C1` [ASP-8273, naquotinib] were 191, 2.7 nM and 515 nM.
As for `O=P(O)(O)C(NC1CCCCCC1)P(=O)(O)O` [Incadronate Disodium, incadronate disodium], the “Selectivity Index (SI)” value in data set [1] is recorded as greater than 20. For the same molecule, in data set [1] (setting [3]), the EC50 turned out to be 480 nM. In data set [2], this molecule registered a CC50 at 72 h greater than 10000 nM.
For `COc1cc2c3c(n(CCCNCCO)c(=O)c2cc1OC)-c1cc2c(cc1C3=O)OCO2` [NSC-706744], the “Selectivity Index (SI)” value in data set [1] was 214. Further, the EC50 in data set [1] (C2C12, 72 h) came to 0.44 nM. This molecule returned a CC50 at 72 h in data set [2] of 94 nM.
Consider `N#Cc1ccc(Cn2cncc2CN2CCN(c3cccc(Cl)c3)C(=O)C2)cc1Oc1ccccc1` [Prenyl-IN-1], for which the “Selectivity Index (SI)” value in data set [1] is 10. In addition, in data set [1] (setting [3]), the EC50 worked out at 18 nM. The molecule further returned a CC50 at 72 h in data set [2] (setting [4]) of 182 nM.
Consider `Cc1cccc2nc3cccc(C(=O)NCCNCCNCCNC(=O)c4cccc5nc6cccc(C)c6nc45)c3nc12` [XR 5944], for which, in data set [1], the “Selectivity Index (SI)” value amounted to 13. Moreover, in data set [1] (setting [3]), the EC50 worked out at 3.5 nM. Besides, the CC50 at 72 h in data set [2] (setting [4]) is 46 nM.
